Test results reported in EP4311550A1, “CHLOROPHYLLIDE DERIVATIVES FOR USE IN THE PREVENTION OR TREATMENT OF BACTERIAL INFECTION” (Université de Liège, priority 2022, dated 2024).
Several values for one entry are separate records, joined by “and”; a condition that tells them apart may be missing. Equal entries are not always repeated.

Assays:
Assay type in all cases: cell-based
[1] = system: Staphylococcus aureus (ATCC 25923); assay: disk diffusion assay (growth inhibition halo); settings: for inhibition diameter (in brackets), in presence of light: Petri dishes incubated in presence of light; for inhibition diameter (in brackets), in the dark: incubation in the dark; for activity of inhibition of S. aureus growth: preparative HPLC fractions redissolved in MeOH/H2O 75%, disk diffusion assay, Figure 3
Description: The antimicrobial activity of these extracts was tested against Gram-positive and Gram-negative bacteria, yeasts and fungi by the diffusion disk method. The bacteria tested were Staphylococcus aureus (ATCC 25923), Enterococcus faecium (ATCC 19434), Escherichia coli (ATCC 25922), Pseudomonas aeruginosa (ATCC 27853), Klebsiella pneumoniae (ATCC 13883), methicillin resistant S. aureus (MRSA, ATCC43300) and Bacillus subtilis 168. The yeasts tested were Candida albicans (MUCL 29800), Saccharomyces cerevisiae (MUCL 31497) and the fungus Aspergillus niger (IHEM 3415). Mueller-Hinton II culture medium was used for cultivating S.aureus, E. coli, P. aeruginosa and K. pneumoniae; Brain Heart infusion Broth for E. faecium; Yeast Peptone Dextrose Broth for C. albicans and A. niger and S. cerevisiae. Agar plates with the appropriate medium were inoculated from the glycerol stock culture and Petri dishes were incubated overnight at 37°C for bacteria and at 28°C during 48 hours for the other strains. Colonies or spores (forA. niger) were then resuspended in a sterile solution of NaCl 0.85% to obtain a OD600 between 0.08 and 0.1 at 600 nm (which corresponds to tube of 0.5 on McFarland scale). Sterile cotton buds were soaked with the suspension and the micro-organisms were spread onto the Petri dish. Five sterile disks of chromatography paper (Whatman 3MM) with a diameter of 6,0 mm were placed on the agar plate. Two disks were respectively used for positive (1 mg/ml kanamycin for S. aureus, B. subtilis, E. coli and K. pneumoniae; 25 mg/ml kanamycin for E. faecium; 0,01 mg/ml ciprofloxacin for P. aeruginosa; 20 and 0,01 mg/ml cycloheximide for A. niger and S. cerevisiae, respectively; 0,1 mg/ml nystatin for C. albicans) and negative (MeOH/H2O 75/25%) controls. The remaining disks were used to test the compound of interest in triplicate. On each disk, 10 µl were loaded on the paper disk in two steps (2 x 5 µl) letting the paper dry between the two loadings. The Petri dishes were then incubated as described above. The antimicrobial activity of compounds of interest was visualized by its growth inhibition halo. […] Table 1: Inhibition diameter of the crude methanol 75% extract of spray-dried powder of Scenedemus sp. S4 and freeze-dried powders of D. armatus S0
The injection volume was fixed at 100 µL, the sample temperature in the autosampler was 10°C and the column was thermostatized at 37°C. The effluent was monitored by a photodiode array detector (Waters 2998 PDA detector, detection range: 200-800 nm) and collected using an automatic fraction collector (Waters Fraction Collector III, volume fraction: 500 µl). The collected fractions were then dried by using a vacuum centrifuge (Speedvac vacuum concentrator Savant SPD-111V, Thermo Scientific) and redissolved in 500 µL of MeOH/H2O 75% (75/25 v/v) and assayed for their capacity to inhibit the growth of S. aureus (disk assay as described above). Several fractions were selected for their antibacterial activity and preparative purifications were then carried out to obtain higher quantities of these compounds to allow their identification and subsequently their characterization.
Preparative chromatography was carried out by using an AKTA explorer system (GE Healthcare) and a preparative reverse phase column (Nucleodur C18 Gravity, 5 µm particule size, length x internal diameter: 25 cm x 1 cm) The chromatogram was recorded at 3 different wavelengths: 230 nm, 430 nm and 650 nm. The volume injected was 2 ml and the flow rate fixed at 2 ml/min. The same buffers as those used during analytical separation were selected and the gradient adapted to the column volume. Fraction size was adapted in such a way that one peak corresponded to one collected fraction. These fractions were then dried with a vacuum centrifuge and redissolved in 500 µL of MeOH/H2O 75%. Figure 3 presents the chromatogram obtained at 430 nm. […]

red blood cell = assay: sheep erythrocyte lysis assay; settings: after 120 min, at 4 x MIC, 37°C
Description: Activity of 13^2-hydroxy-methylchlorophyllide a on red blood cell was determined using a sheep erythocyte lysis assay. The lytic action was assessed on defibrinated sheep blood (bioTRADING). The erythrocytes were harvested by centrifugation (1500 rpm, 5 min) and washed 10 times with phosphate buffer saline (PBS). The red blood cells were then diluted 25 times with PBS and washed two more times to obtain a colourless supernatant after a centrifugation at 3000 g for 5 minutes. Samples of 1 ml of red blood cells (25 times diluted) are transferred in Eppendorf tubes and the 13^2-hydroxy-methylchlorophyllide a, dissolved in MeOH/H2O 75% (v/v), was added to obtain a final concentration equal to 1x or 4x MIC. The tubes are then incubated at 37°C at 300 rpm by using a thermomixer HC (Starlab) and 100 µl samples were withdrawn at time 0, 5, 10, 15, 30, 60 and 120 min. […]
The erythrocyte lysis was highlighted by the presence of haemoglobin in the supernatant and quantified by measuring the absorbance of the supernatant at 540 nm by means of a microplate reader Tecan infinite200 pro. The percentage lysis was calculated as follows: % lysis = (AChl^540 −APBS^540)/(ASDS 0.1%^540) × 100 [formula] wherein AChl is the absorbance of the tested compound, APBS is the measured absorbance of the PBS solution and ASDS is the absorbance of the SDS solution (positive control), each at the wavelength of 540 nm. […]

S. aureus (ATCC25923) = assay: minimum inhibitory concentration by microdilution method; settings: 37°C, in the dark, 24 hours, Mueller-Hinton broth; 1:40 dilution factor of 58.03 µg/ml stock
Description: The minimum inhibitory concentration (MIC) of 13^2-hydroxy-methylchlorophyllide a for S. aureus was determined using the microdilution method. In a 48-well plate, 500 µl of Mueller-Hinton broth were placed in each well. Then, 500 µl of a dilute solution of 13^2-hydroxy-methylchlorophyllide a (stock solution in MeOH/H2O 75% diluted 5x by Mueller-Hinton broth) were added to the first well and serial 2-fold dilutions were made by transferring 500 µL from one well to the next. For the last well, 500 µl were discarded. A culture of S. aureus (ATCC25923) growing in exponential phase was diluted with sterile NaCl 0.85% (w/v) to obtain a bacterial suspension corresponding to 0.5 tube McFarland unit and then dispensed in 500 µl aliquots in the 48 well plate. After covering the 48-plate with its lid, it was incubated at 37°C under agitation and in the dark for 24 hours. The MIC was defined as the last dilution for which no visible bacterial growth was observed. The concentration of the active compound was determined on the basis of a calibration line obtained by injecting increasing volumes of a solution of pure chlorophyllide a standard on a reverse-phase HPLC column.

S. aureus [2] = assay: viable count (CFU per ml) after addition of compound; settings: 1 or 4 x MIC, in the dark
Description: To distinguish between these two antibacterial activities, the number of viable S. aureus were determined by counting the colonies forming units (CFU) per ml of culture before the addition of the chlorophyllide derivative (t=0 h) and after 2 and 4 hours. […] The negative control is represented in black, while cultures treated with 1x and 4xMIC of purified S fraction are hatched and dotted respectively. The data presented are the average values of three independent experiments.
For culture without addition of chlorophyllide derivative (negative control, only addition of MeOH/H2O 75%) S. aureus maintained its growth and CFU/ml increased. On the contrary, once 13^2-hydroxy-methylchlorophyllide a was added (1 or 4 x MIC value in MeOH/H2O 75%, final concentration), the number of CFU/ml decreased of at least four logarithmic steps (4 log10). This means that the chlorophyllide derivative killed, in the dark, more than 99.99% of the bacterial population. The same result was observed after 2 and 4 hours even if for this latter culture a slight return of bacterial growth was observed.

S. aureus [3] = assay: growth curve (OD600) of an early exponential culture after addition of compound; settings: 1x and 4x the MIC, directly after addition, in the dark
Description: To further characterize the antibacterial action of 13^2-hydroxy-methylchlorophyllide a, a S. aureus culture in its early exponential phase of growth was submitted to the action of the chlorophyllide derivative. 100 ml of Mueller-Hinton broth were inoculated with an overnight culture of S. aureus to obtain a bacterial density corresponding to an optical density at 600 nm (OD^600) = 0.05. This culture was then incubated at 37°C under orbital shaking (240 rpm) by using an Aquatron (Infors) shaker. Once the cells enter early exponential growth (OD^600= 0.2), the culture was subdivided into three 20 ml cultures. For two cultures, 13^2-hydroxy-methylchlorophyllide a solubilized in MeOH/H2O 75% was added to reach a final concentration equal to 1x and 4x the MIC, respectively. For the third culture (control culture), a corresponding volume of MeOH/H2O without any chlorophyllide compound was added. In Figure 7 the optical density as a function of time is presented. The addition of the compounds occurred after 75 minutes. […] OD^600 remained unchanged during the whole experiment. This observation supports the hypothesis that no bacterial cell lysis takes place and that the antibacterial activity of 13^2-derivative is either bacteriostatic or non-lytic bactericidal.

Compound | inhibition diameter (in brackets), in presence of light ([1]; disk diameter 6,0 mm) [cm] | inhibition diameter (in brackets), in the dark ([1]; disk diameter 6,0 mm) [cm] | activity of inhibition of S. aureus growth [1] | other results
13^2-hydroxy-chlorophyllide a [listing 1 of 2 here] | 0.86 | 0.69 | – | –
13^2-hydroxy-chlorophyllide a [listing 2 of 2 here] | – | – | active | –
13^2-hydroxy-chlorophyllide b [listing 1 of 2 here] | 0.70 | 0.72 | – | –
13^2-hydroxy-chlorophyllide b [listing 2 of 2 here] | – | – | active | –
13^2-hydroxy-methylchlorophyllide a [listing 1 of 2 here] | 1.12 | 0.80 | – | activity of inhibition of S. aureus growth ([1]; listed as S): most active; percentage of red blood cell hemolysis (red blood cell): lower than 10%; MIC (S. aureus (ATCC25923)): 1.45 µg/mL; decrease of the number of CFU/ml (S. aureus [2]; after 2 and 4 hours): ≥ 4 log10; bacterial population killed (S. aureus [2]): more than 99.99%; S. aureus growth (OD600) (S. aureus [3]): growth was stopped
13^2-hydroxy-methylchlorophyllide a [listing 2 of 2 here] | – | – | active | –
13^2-hydroxy-methylchlorophyllide b | 0.87 | 0.73 | – | –
13^2-hydroxy-methylchlorophyllide b [K] | – | – | active | –
NC[C@H]1O[C@H](O[C@H]2[C@H](O)[C@@H](O[C@H]3O[C@H](CO)[C@@H](O)[C@H](N)[C@H]3O)[C@H](N)C[C@@H]2N)[C@H](O)[C@@H](O)[C@@H]1O [Positive control, kanamycin, reference compound] | – | – | – | Inhibition diameter, Positive control ([1]; positive control disk on the plate of the named extract (1 mg/ml kanamycin for S. aureus), 10 µl per disk, disk diameter 6,0 mm): 2.10 cm and 1.62 cm
C=CC1=C(C)C2=NC1=CC1=NC(=Cc3[n-]c4c(c3C)=C([O-])C(C(=O)OC)C=4C3=NC(=C2)C(C)C3CCC(=O)OC)C(CC)=C1C.[Mg+2] (centres unmarked) [methyl chlorophyllide a, reference compound] | – | 0.60 | – | –
